Key:
lesions of the stomach = assay: anti-ulcer activity (protection from indomethacin-induced lesions of the stomach, oral); assay type: in vivo, male rats; conditions: Rattus norvegicus, rats, p.o. 1 hour before and 2 hours after 20 mg/kg indomethacin p.o., dosage protecting 50% of the animals, read-out: Anti-ulcer ED 50
Description: The experimental procedure described hereinafter was used to determine the anti-ulcer activity:
Groups each comprising 8 male rats with a body weight of 130-150 g are used for each dosage of a test substance. Before the beginning of the experiment the animals receive no food for 24 hours, but receive water ad libitum. Various dosages of the substances to be tested (suspended in 0.5% tragacanth) or the vehicle alone (controls) are administered twice orally, namely 1 hour before and 2 hours after the oral administration of 20 mg/kg of indomethacin. In the control animals this dosage of indomethacin leads to lesions of the stomach within 5 hours. The animals are sacrificed 6 hours after the first administration of the substance under investigation (or of the vehicle alone). The rats which remain protected from the occurrence of macroscopically visible lesions to the mucous membrane of the stomach are counted. The ED is that dosage of a test substance at which 50% of the animals are protected from the occurence of such lesions.

gastric acid secretion = assay: gastric acid secretion-inhibiting activity (4-methylhistamine-stimulated, Heidenhain pouch, oral); assay type: in vivo; conditions: Canis lupus familiaris, conscious beagle hounds, p.o., 50% inhibition of gastric acid production caused by i.v. 4-methylhistamine, read-out: Gastric acid secretion-inhibition ED 50
Description: The experimental procedure described hereinafter was used to determine the gastric acid secretion-inhibiting activity:
A part of the stomach fundus of female and male beagle hounds is separated from the remainder of the stomach in the form a pouch of the Heidenhain type (modification of the method described by Rudick et al. in J. Surgical Research 7, 383-398 (1967)). In the pouch there is fitted a steel cannula which is conducted externally through the abdominal wall. Before each experiment the animals receive no food for 18 hours, but receive water ad libitum. They are conscious and standing during the experiment and their gastric acid secretion is stimulated by the intravenous infusion of 4-methylhistamine, a selective agonist of the histamine H2 -receptors. The gastric acid production is determined in 15 minute fractions of the stomach pouch juice. As soon as the gastric acid production has a constant value, the substances to be tested are administered orally as a dry powder filled into gelatine capsules. The ED50 is that dosage of a test substance which brings about a 50% inhibition of the gastric acid production caused by 4-methylhistamine in the treated animals in comparison to the controls.

[1] = acute toxicity (single oral administration to mice); conditions: mouse, in vivo, read-out: Toxicity LD 50
Source text: In the following Table there are given for a series of compounds of formula I the results of the testing with respect to their anti-ulcer activity and to their gastric secretion-inhibiting activity. Moreover, this Table contains data concerning the acute toxicity (LD50 in the case of single oral administration to mice).

| Structure (SMILES) | ED50 (lesions of the stomach) | ED50 (gastric acid secretion) | LD50 [1] |
| --- | --- | --- | --- |
| COc1c(C)cnc(CSc2nc3cc4c(cc3[nH]2)C(C)(C)C(=O)C4(C)C)c1C [A, 5,7-dihydro-2-[[(4-methoxy-3,5-dimethyl-2-pyridyl)-methyl]thio]-5,5,7,7-tetramethylindeno[5,6-d]imidazol-6(lH)-one] | 2 mg/kg | 4.88 mg/kg | > 5000 mg/kg |
| COc1c(C)cnc(C[S+]([O-])c2nc3cc4c(cc3[nH]2)C(C)(C)C(=O)C4(C)C)c1C (stereo not drawn) [B, 5,7-dihydro-2-[[(4-methoxy-3,5-dimethyl-2-pyridyl)-methyl]sulfinyl]-5,5,7,7-tetramethylindeno[5,6-d]imidazol-6(lH)-one] | 2.3 mg/kg | 5.44 mg/kg | > 5000 mg/kg |
| COc1ccnc(CSc2nc3cc4c(cc3[nH]2)C(C)(C)C(=O)C4(C)C)c1C [C, 5,7-dihydro-2-[[(4-methoxy-3-methyl-2-pyridyl)methyl]thio]-5,5,7,7-tetramethylindeno[5,6-d]imidazol-6(lH)-one] | 1.2 mg/kg | 2.56 mg/kg | > 5000 mg/kg |
| COc1ccnc(C[S+]([O-])c2nc3cc4c(cc3[nH]2)C(C)(C)C(=O)C4(C)C)c1C (stereo not drawn) [D, 5,7-dihydro-2-[[(4-methoxy-3-methyl-2-pyridyl)-methyl]sulfinyl]-5,5,7,7-tetramethylindeno[5,6-d]imidazol-6(lH)-one] | 1.3 mg/kg | 3.59 mg/kg | > 5000 mg/kg |
| COc1ccnc(C[S+]([O-])c2nc3cc4c(cc3[nH]2)OCO4)c1C (stereo not drawn) [E, 6-[[(4-methoxy-3-methyl-2-pyridyl)methyl]sulfinyl]-5H-1,3-dioxolo[4,5-f]benzimidazole] | 4 mg/kg | 1.79 mg/kg | > 5000 mg/kg |
| COc1c(C)cnc(C[S+]([O-])c2nc3cc4c(cc3[nH]2)OCO4)c1C (stereo not drawn) [F, 6-[[(4-methoxy-3,5-dimethyl-2-pyridyl)methyl]sulfinyl]-5H-1,3-dioxolo[4,5-f]benzimidazole] | 6 mg/kg | 1.4 mg/kg | > 5000 mg/kg |
| CON=C1C(C)(C)c2cc3nc([S+]([O-])Cc4nccc(OC)c4C)[nH]c3cc2C1(C)C (stereo not drawn) [H, 5,7-dihydro-2-[[(4-methoxy-3-methyl-2-pyridyl)methyl]sulfinyl]-5,5,7,7-tetramethylindeno[5,6-d]imidazol-6(lH)-one 0-methyl oxime] | 5 mg/kg | 7.78 mg/kg | 1250 to 2500 mg/kg |
| CON=C1C(C)(C)c2cc3nc(SCc4nccc(OC)c4C)[nH]c3cc2C1(C)C [I, 5,7-dihydro-2-[[(4-methoxy-3-methyl-2-pyridyl)methyl]thio]-5,5,7,7-tetramethylindeno[5,6-d]imidazol-6(lH)-one 0-methyl oxime] | 4 mg/kg | 2.25 mg/kg | 1250 to 2500 mg/kg |
